Data: publication PMC6478789, “A chemical toolbox for the study of bromodomains and epigenetic signaling” (Nature Communications, 2019)

Key:
[1] = biological target: T1, STK3 (Homo sapiens, UniProt Q13188); assay: Temperature shift assay (protein kinases); assay type: binding; settings: 10 μM probe; average of three measurements
T1 construct: Recombinant protein domains (bromodomain or kinases) at a concentration of 2 μM
T1 sequence (Q13188 27-278 limits assumed): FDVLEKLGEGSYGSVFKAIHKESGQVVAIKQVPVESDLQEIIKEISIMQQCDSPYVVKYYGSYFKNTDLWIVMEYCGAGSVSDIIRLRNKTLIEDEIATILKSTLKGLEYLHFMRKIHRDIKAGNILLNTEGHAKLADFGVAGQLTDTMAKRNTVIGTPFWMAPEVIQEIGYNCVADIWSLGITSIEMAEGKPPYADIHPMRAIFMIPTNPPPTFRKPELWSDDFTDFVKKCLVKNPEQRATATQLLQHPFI
Procedure: (§1) Temperature shift assays have been described by Fedorov et al.[46]. Recombinant protein domains (bromodomain or kinases) at a concentration of 2 μM in 10 mM HEPES, pH 7.5, and 500 mM NaCl were mixed with 10 μM of chemical probes. Temperature-dependent protein unfolding profiles were measured using a Real-Time PCR Mx3005p machine (Stratagene).

[2] = biological target: T2, ABL1 (Homo sapiens, UniProt P00519); assay: Temperature shift assay (protein kinases); assay type: binding; settings: 10 μM probe; average of three measurements
T2 construct: Recombinant protein domains (bromodomain or kinases) at a concentration of 2 μM
T2 sequence (P00519 242-493 limits assumed): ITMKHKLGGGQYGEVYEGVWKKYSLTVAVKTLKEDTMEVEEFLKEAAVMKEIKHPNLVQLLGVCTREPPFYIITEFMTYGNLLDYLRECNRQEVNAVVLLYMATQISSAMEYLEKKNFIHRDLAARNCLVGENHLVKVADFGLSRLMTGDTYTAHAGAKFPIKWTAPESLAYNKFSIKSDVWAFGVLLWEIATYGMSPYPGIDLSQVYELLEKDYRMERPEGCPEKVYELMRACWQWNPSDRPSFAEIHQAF
Procedure: as §1

[3] = biological target: T3, EPHA2 (Homo sapiens, UniProt P29317); assay: Temperature shift assay (protein kinases); assay type: binding; settings: 10 μM probe; average of three measurements
T3 construct: Recombinant protein domains (bromodomain or kinases) at a concentration of 2 μM
T3 sequence (P29317 613-875 limits assumed): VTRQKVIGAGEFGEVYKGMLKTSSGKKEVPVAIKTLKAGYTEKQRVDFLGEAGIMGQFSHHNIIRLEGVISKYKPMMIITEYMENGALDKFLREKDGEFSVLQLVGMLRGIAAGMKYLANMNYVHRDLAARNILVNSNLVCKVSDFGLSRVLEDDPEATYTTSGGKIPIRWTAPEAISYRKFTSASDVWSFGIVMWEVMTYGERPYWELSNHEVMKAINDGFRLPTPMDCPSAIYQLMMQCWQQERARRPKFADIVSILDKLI
Procedure: as §1

[4] = biological target: T4, GPRK5 (Homo sapiens, UniProt P34947); assay: Temperature shift assay (protein kinases); assay type: binding; settings: 10 μM probe; average of three measurements
T4 construct: Recombinant protein domains (bromodomain or kinases) at a concentration of 2 μM
Procedure: as §1

[5] = biological target: T5, GSG2 (Homo sapiens, UniProt Q8TF76); assay: Temperature shift assay (protein kinases); assay type: binding; settings: 10 μM probe; average of three measurements
T5 construct: Recombinant protein domains (bromodomain or kinases) at a concentration of 2 μM
T5 sequence (Q8TF76 484-798 limits assumed): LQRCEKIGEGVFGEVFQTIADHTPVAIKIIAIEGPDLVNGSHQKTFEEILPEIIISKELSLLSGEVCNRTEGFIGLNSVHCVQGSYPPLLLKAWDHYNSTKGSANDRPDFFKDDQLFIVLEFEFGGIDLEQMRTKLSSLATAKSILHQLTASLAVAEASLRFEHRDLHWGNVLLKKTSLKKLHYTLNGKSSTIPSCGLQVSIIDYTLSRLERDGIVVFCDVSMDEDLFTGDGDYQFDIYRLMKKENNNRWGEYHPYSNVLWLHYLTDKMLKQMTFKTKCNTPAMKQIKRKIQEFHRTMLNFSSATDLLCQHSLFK
Procedure: as §1

[6] = biological target: T6, PHGK2 (Homo sapiens, UniProt P15735); assay: Temperature shift assay (protein kinases); assay type: binding; settings: 10 μM probe; average of three measurements
T6 construct: Recombinant protein domains (bromodomain or kinases) at a concentration of 2 μM
T6 sequence (P15735 24-291 limits assumed): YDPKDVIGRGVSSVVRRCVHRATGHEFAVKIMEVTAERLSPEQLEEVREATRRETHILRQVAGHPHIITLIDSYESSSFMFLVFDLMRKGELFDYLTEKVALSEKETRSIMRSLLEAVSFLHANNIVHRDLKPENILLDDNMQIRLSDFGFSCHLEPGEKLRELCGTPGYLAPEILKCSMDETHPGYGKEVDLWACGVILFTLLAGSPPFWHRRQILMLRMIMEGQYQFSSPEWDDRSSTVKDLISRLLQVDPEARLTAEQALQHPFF
Procedure: as §1

[7] = biological target: T7, CAMKK2 (Homo sapiens, UniProt Q96RR4); assay: Temperature shift assay (protein kinases); assay type: binding; settings: 10 μM probe; average of three measurements
T7 construct: Recombinant protein domains (bromodomain or kinases) at a concentration of 2 μM
Procedure: as §1

[8] = biological target: T8, STK10 (Homo sapiens, UniProt O94804); assay: Temperature shift assay (protein kinases); assay type: binding; settings: 10 μM probe; average of three measurements
T8 construct: Recombinant protein domains (bromodomain or kinases) at a concentration of 2 μM
Procedure: as §1

[9] = biological target: T9, MERTK (Homo sapiens, UniProt Q12866); assay: Temperature shift assay (protein kinases); assay type: binding; settings: 10 μM probe; average of three measurements
T9 construct: Recombinant protein domains (bromodomain or kinases) at a concentration of 2 μM
T9 sequence (Q12866 587-858 limits assumed): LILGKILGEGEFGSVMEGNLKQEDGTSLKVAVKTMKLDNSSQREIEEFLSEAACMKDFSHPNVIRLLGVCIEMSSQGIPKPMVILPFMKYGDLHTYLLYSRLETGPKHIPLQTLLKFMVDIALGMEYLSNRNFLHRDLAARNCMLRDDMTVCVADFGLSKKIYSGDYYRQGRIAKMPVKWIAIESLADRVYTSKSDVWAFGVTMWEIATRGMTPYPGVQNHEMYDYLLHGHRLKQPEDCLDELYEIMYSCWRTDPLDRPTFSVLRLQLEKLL
Procedure: as §1

[10] = biological target: T10, PAK4 (Homo sapiens, UniProt O96013); assay: Temperature shift assay (protein kinases); assay type: binding; settings: 10 μM probe; average of three measurements
T10 construct: Recombinant protein domains (bromodomain or kinases) at a concentration of 2 μM
Procedure: as §1

[11] = biological target: T11, BRAF (Homo sapiens, UniProt P15056); assay: Temperature shift assay (protein kinases); assay type: binding; settings: 10 μM probe; average of three measurements
T11 construct: Recombinant protein domains (bromodomain or kinases) at a concentration of 2 μM
Procedure: as §1

[12] = biological target: T12, DYRK1A (Homo sapiens, UniProt Q13627); assay: Temperature shift assay (protein kinases); assay type: binding; settings: 10 μM probe; average of three measurements
T12 construct: Recombinant protein domains (bromodomain or kinases) at a concentration of 2 μM
Procedure: as §1

[13] = biological target: T13, FES (Homo sapiens, UniProt P07332); assay: Temperature shift assay (protein kinases); assay type: binding; settings: 10 μM probe; average of three measurements
T13 construct: Recombinant protein domains (bromodomain or kinases) at a concentration of 2 μM
Procedure: as §1

[14] = biological target: SMARCA2(iso.A) (Homo sapiens, UniProt P51531); assay: BROMOscan ligand-binding assay
From the text: (§2) BROMOscan is a binding assay based on the well-known KINOMEscan technology. This assay measures the binding of a DNA-tagged bromodomain to an immobilized BRD ligand. If an inhibitor is present, it will compete with the bromodomain binding to the immobilized ligand, resulting in reduction of a quantitative PCR (qPCR) signal in a dose-dependent manner.

[15] = biological target: T14, BAZ1B (Homo sapiens, UniProt Q9UIG0); assay: BROMOscan ligand-binding assay
T14 sequence (Q9UIG0 1339-1443 limits assumed): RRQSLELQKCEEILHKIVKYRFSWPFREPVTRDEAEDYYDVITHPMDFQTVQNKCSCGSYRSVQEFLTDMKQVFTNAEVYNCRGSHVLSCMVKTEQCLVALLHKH
From the text: as §2

[16] = KD (BROMOscan), sheet prints no unit (nM)
[17] = KD, BROMOscan Gene Symbol BAZ1B

T11 sequence (P15056 457-717 limits assumed, species assumed): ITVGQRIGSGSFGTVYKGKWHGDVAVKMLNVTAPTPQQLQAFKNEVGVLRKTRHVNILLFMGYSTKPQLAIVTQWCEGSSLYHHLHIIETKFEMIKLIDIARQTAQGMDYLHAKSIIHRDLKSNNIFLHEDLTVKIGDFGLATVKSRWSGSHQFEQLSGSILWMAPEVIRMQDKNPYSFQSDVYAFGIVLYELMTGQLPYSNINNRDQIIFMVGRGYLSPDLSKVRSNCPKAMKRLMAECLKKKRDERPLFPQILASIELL
T13 sequence (P07332 561-822 limits assumed, species assumed): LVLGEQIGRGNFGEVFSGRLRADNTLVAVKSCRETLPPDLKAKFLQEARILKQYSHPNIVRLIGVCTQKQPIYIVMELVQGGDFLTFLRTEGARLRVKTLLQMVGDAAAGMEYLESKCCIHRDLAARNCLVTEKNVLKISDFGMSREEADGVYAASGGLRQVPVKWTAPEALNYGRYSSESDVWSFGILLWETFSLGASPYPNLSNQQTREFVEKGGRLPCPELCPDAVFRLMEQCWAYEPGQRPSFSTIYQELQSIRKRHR
Chain of SMARCA2(iso.A) (P51531 1378-1506 limits assumed): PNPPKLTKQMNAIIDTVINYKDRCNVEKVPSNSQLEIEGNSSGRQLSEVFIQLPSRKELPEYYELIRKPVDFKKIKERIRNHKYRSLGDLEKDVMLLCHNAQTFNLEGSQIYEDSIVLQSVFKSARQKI
T7 sequence (Q96RR4 165-446 limits assumed, species assumed): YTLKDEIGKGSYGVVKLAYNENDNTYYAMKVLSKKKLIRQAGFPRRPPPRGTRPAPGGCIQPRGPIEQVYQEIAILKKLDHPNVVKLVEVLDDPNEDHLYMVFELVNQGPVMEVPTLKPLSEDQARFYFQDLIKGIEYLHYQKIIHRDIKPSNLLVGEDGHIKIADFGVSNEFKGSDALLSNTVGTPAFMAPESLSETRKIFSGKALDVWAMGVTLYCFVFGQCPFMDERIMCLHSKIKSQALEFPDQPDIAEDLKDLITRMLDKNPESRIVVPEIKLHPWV
T10 sequence (O96013 321-572 limits assumed, species assumed): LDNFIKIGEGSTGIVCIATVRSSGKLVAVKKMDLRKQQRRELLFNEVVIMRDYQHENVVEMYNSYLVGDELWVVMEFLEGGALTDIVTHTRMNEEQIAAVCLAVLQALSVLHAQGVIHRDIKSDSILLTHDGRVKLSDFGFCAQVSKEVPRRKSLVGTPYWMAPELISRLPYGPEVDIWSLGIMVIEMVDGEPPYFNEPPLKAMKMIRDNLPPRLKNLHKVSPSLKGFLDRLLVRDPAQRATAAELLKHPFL
T8 sequence (O94804 36-294 limits assumed, species assumed): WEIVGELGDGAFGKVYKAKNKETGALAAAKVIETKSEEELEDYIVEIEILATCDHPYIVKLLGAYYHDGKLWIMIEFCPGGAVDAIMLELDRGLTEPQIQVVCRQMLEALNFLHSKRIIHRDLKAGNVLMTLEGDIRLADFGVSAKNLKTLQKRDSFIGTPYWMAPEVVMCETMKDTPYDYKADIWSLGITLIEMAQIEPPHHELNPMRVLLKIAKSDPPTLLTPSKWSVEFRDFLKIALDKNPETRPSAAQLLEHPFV
T4 sequence (P34947 186-448 limits assumed, species assumed): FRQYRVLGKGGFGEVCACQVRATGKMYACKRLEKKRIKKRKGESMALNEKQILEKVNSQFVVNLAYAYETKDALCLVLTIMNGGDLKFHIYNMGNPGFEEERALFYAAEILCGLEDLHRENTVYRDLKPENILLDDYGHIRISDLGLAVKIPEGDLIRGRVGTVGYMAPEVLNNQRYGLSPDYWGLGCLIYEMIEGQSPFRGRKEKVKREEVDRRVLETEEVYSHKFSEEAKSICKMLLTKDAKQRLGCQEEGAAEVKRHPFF

In the case of `Cc1cc2c(cc1N1C(=O)c3cccc4c(CCCO)ccc(c34)C1=O)n(C)c(=O)n2C` [BAY-299], the Temperature shift [1] is reported as 0.1 Kelvin, the Temperature shift [2] is reported as 0.0 Kelvin and the Temperature shift [3] is reported as 2.0 Kelvin. For the same compound, the Temperature shift [4] was -0.3 Kelvin, the Temperature shift [5] was 0.1 Kelvin and the Temperature shift [6] was 0.0 Kelvin. The Temperature shift [7] was -0.4 Kelvin, the Temperature shift [8] was -0.2 Kelvin and the Temperature shift [9] was -0.2 Kelvin. For the same compound, the Temperature shift [10] was -0.1 Kelvin, the Temperature shift [11] was 0.1 Kelvin and the Temperature shift [12] was -0.5 Kelvin. It also gave a Temperature shift [13] of 0.0 Kelvin.

For `CCCOc1ccn2c(C(C)=O)cc(-c3ccccc3S(C)(=O)=O)c2c1` [GSK2801], the Kd [14, 16] was > 30000 nM, the Kd ([14]; KD, BROMOscan Gene Symbol SMARCA2(iso.A)) was > 100000 nM and the Kd [15, 16] was > 30000 nM. The Kd [15, 17] was > 100000 nM.

`CCC(=O)N1CCOc2c(cc(-c3ccc(OC)c(OC)c3)cc2OCC2CCCN(C)C2)C1` (stereo not shown) [I-CBP112] was tested, and the Kd [14, 16] was > 30000 nM, the Kd ([14]; KD, SMARCA2(iso.A)) was > 100000 nM and the Kd [15, 16] was > 30000 nM. The Kd [15, 17] was > 100000 nM, the Temperature shift [1] was 0.0 Kelvin and the Temperature shift [2] was 0.0 Kelvin. It also gave a Temperature shift [3] of 1.1 Kelvin, a Temperature shift [4] of -0.4 Kelvin and a Temperature shift [5] of 0.1 Kelvin. For the same compound, the Temperature shift [6] was 0.1 Kelvin, the Temperature shift [7] was -0.4 Kelvin and the Temperature shift [8] was -0.4 Kelvin. The Temperature shift [9] was -0.2 Kelvin, the Temperature shift [10] was -0.2 Kelvin and the Temperature shift [11] was -0.1 Kelvin. For the same compound, the Temperature shift [12] was -0.4 Kelvin and the Temperature shift [13] was -0.1 Kelvin.

`Cc1nnc2c3ccccc3c(N[C@@H](C)[C@H](c3ccccc3)N(C)C)nn12` [L-Moses] gave a Temperature shift [1] of 0.0 Kelvin, a Temperature shift [2] of 0.0 Kelvin and a Temperature shift [3] of 1.1 Kelvin. The Temperature shift [4] was -0.3 Kelvin, the Temperature shift [5] was 0.1 Kelvin and the Temperature shift [6] was -0.1 Kelvin. The Temperature shift [7] was -0.1 Kelvin, the Temperature shift [8] was -0.4 Kelvin and the Temperature shift [9] was 0.0 Kelvin. For the same compound, the Temperature shift [10] was -0.3 Kelvin, the Temperature shift [11] was -0.1 Kelvin and the Temperature shift [12] was 0.2 Kelvin. For the same compound, the Temperature shift [13] was -0.2 Kelvin.

In the case of `O=C(C=CN1CC2CC1CN2c1ccccn1)c1ccccc1O` (stereo not shown) [PFI-3], the Kd [15, 16] is reported as > 30000 nM and the Kd ([15]; KD, BAZ1B) is reported as > 100000 nM.

`COc1ccc(CCc2nc3cc(-c4c(C)noc4C)ccc3n2C[C@H](C)N2CCOCC2)cc1Cl` [SGC-CBP30] was tested, and the Kd [14, 16] was > 30000 nM, the Kd ([14]; KD, BROMOscan, SMARCA2(iso.A)) was > 100000 nM and the Kd [15, 16] was > 30000 nM. For the same compound, the Kd ([15]; KD, BROMOscan, BAZ1B) was > 100000 nM.

In the case of `O=C(O)c1ccccc1O` [Salicylic Acid], the Kd ([14]; KD, SMARCA2(iso.A)) is reported as 950000 nM and the Kd ([15]; KD, BAZ1B) is reported as > 1.4e+07 nM.
